Experiments:
[1] = molecular target: EcoRV (Escherichia coli, UniProt P04390); assay: In vitro nuclease assay of EcoRV (pcDNA3 substrate); format: biochemical
Method: Nuclease assay. Purified PAAN/MIF protein (4 μM) was incubated with compounds (10 μM) in the nuclease buffer [10 mM Tris-C1 (pH 7.0) and 10 mM MgCl2] for 20 m on ice. Then samples were added with 1 μM of PAAN/MIF substrate (PS30 or RF) and incubated for 1 h at 37° C. The reaction was terminated with loading buffer containing 10 mM EDTA and separated on 15% TBE-urea polyacrylamide (PAGE) gel or 20% TBE PAGE gel. For other nucleases (EcoRI and EcoRV) assays, pcDNA3 (500 ng/reaction) was used as a substrate and 0.01 unit of Exonulcase III were incubated with small dsDNA (Sequence ID NO 4:5′-[…]-3′ and Sequence ID NO 5:5′-[…]-3′).

[2] = molecular target: T1, MIF (Homo sapiens, UniProt P14174); assay: Nuclease assay of Example 3 (MIF inhibitory activity, Table 4); format: biochemical; details: nuclease assay of Example 3
T1 sequence (P14174 1-115): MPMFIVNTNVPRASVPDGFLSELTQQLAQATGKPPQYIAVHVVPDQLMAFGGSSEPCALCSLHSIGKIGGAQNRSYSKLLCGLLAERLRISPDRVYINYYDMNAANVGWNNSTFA
How it was run: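 Human genomic DNA (200 ng), pcDNA (200 ng) or PS^30-type substrates (1 μM) were incubated with MIF (0.25-8 μM final) in 10 mM Tris-HCl pH 7.0, 10 mM MgCl2, 1 mM DTT at 37 °C for 1 h (pcDNA, small substrates) or 4 h (genomic DNA). Cleavage was assessed by agarose or PAGE electrophoresis with EtBr staining and chemiluminescent detection of biotin-labelled DNA.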

[3] = molecular target: T2, PAAN/MIF tautomerase activity (Homo sapiens, UniProt P14174); assay: Tautomerase activity assay (D-dopachrome methyl ester); format: biochemical; details: 10 μM compounds
T2 construct: GST (N, cleaved yes); made in house; host or cells: Escherichia coli
T2 sequence (P14174 1-115): T1 sequence (P14174 1-115)
Method: Tautomerase activity assay. The keto-enol tautomeric conversion of D-dopachrome methyl ester by PAAN/MIF was used as described previously. See Bendraft et al. (1997) Biochemistry 36:15356-62. Briefly, a fresh solution of D-dopachrome methyl ester was prepared by mixing 2 mML-3,4 dihydroxyphenylalanine methyl ester with 4 mM sodium peroxidate for 5 m at room temperature and then placed directly on ice before use. The enzymatic reaction was initiated at 25° C. by adding 20 μl of the dopachrome methyl ester substrate to 200 μl of PAAN/MIF WT (final concentration 5 μM) with or without 10 μM compounds (compounds 41, 56, 76, and 77) in tautomerase assay buffer (50 mM potassium phosphate, 1 mM EDTA, pH 6.0). To enhance substrate stability, excess sodium meta-periodate was removed using […] disposable columns (Waters). The activity was determined by the decrease in absorbance at 475 nm using a spectrophotometer (Molecular Devices).

[4] = Measurement of compounds in brain after oral gavage (HPLC-MS); format: in vivo, C57BL/6 mice; details: oral gavage 10 mg/kg
Method: The concentrations of compounds in brain tissue were measured by LC/MS. […] Bars represent means±s.e.m. ***P<0.0005, two-way ANOVA followed by Tukey's post hoc test (n=3). […] Quantification of noncleaved substrate. Bars represent mean±s.e.m. ***P<0.0005, two-way ANOVA followed by Tukey's post hoc test (n=4). […] Intensity of noncleaved genomic DNA is shown in the graph. Bars represent mean±s.e.m. ***P<0.0005, two-way ANOVA followed by Tukey's post hoc test (n=4).
Measurement of compound 121 in brain. Compound 56, compound 77, and compound 121 were resuspended in a vehicle solution and were administered at 10 mg/kg by oral gavage. After 2 h, mice were perfused with PBS and whole brain was isolated, weighed and grounded with a pestle to a very fine powder with liquid nitrogen. Then, 2-folds of acetonitrile were added to brain tissue sample and the mixture was centrifuged at 14,000 rpm, 4° C. for 10 m. The supernatant was used for analysis. The concentration of compounds in brain tissue were measured using HPLC-MS on a C-18 reverse phase HPLC column. Separations were achieved using a linear gradient of buffer B from 40% to 95% in A (A=0.1% formic acid in H20; B=0.1% formic acid in CH3CN) at a flow rate of 1 ml/min. Intracerebroventricular (ICV) injected brain samples at 0.5, 1, 2, 4 or 8 μM concentration were used for the standard curve.

[5] = molecular target: T3, PAAN/MIF thiol-protein oxidoreductase activity (Homo sapiens, UniProt P14174); assay: Oxidoreductase activity assay (insulin reduction); format: biochemical; details: 10 μM compounds
T3 construct: GST (N, cleaved yes); made in house; host or cells: Escherichia coli
T3 sequence (P14174 1-115): T1 sequence (P14174 1-115)
Method: Oxidoreductase activity assay. The thiol-protein oxidoreductase activity of PAAN/MIF was measured using insulin as the substrate as described previously. See Kudrin et al. (2006) J. Biol. Chem. 281:29641-51. Briefly, the insulin assay is based on the reduction of insulin and subsequent insolubilization of the insulin β-chain. The time-dependent increase in turbidity is then measured spectrophotometrically at 650 nm. The reaction was started by adding 5 μM PAAN/MIF WT in the presence or absence of 10 μM compounds (compounds 41, 56, 76, and 77) dissolved in 20 mM sodium phosphate buffer (pH 7.2), and 200 mM reduced glutathione (GSH) to ice-cold reaction mixture containing 1 mg/ml insulin, 100 mM sodium phosphate buffer (pH 7.2) and 2 mM EDTA. Insulin reduction was measured against the control solution (containing GSH) in the same experiment.

EcoRV, sequence (P04390 whole entry): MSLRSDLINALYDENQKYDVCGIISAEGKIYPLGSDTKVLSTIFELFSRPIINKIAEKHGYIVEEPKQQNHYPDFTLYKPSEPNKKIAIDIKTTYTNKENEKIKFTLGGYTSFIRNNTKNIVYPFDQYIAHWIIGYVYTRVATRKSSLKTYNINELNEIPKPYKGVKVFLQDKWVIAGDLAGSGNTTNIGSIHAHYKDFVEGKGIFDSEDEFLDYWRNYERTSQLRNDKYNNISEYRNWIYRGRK

SMILES | nuclease activity of EcoRV [1] | (%) inhibition of MIF nuclease activity [2] [%] | MIF's tautomerase activity [3] | concentration at 2 h ([4]; C57BL/6, mouse, brain, read-out: achievable concentration in brain) [nM] | ability to cross the blood brain barrier (BBB) ([4]; 2 h) | MIF's oxidoreductase activity [5] | levels detected in the brain relative to compound 56 ([4]; 2 h) [fold]
COc1ccc(CC[C@H]2OC(=O)[C@@H]3CCCCN3C(=O)C(=O)C(C)(C)COC(=O)C=CCCN(C)C(=O)[C@@H]3CCCN3C(=O)[C@H](COC(C)(C)C)N(C)C(=O)C(c3ccccc3)NC(=O)[C@H](C)N(C)C(=O)COc3cccc2c3)cc1OC (stereo partly shown) [compound 56] | do not inhibit | 70.8 | Neither did they inhibit | < 500 | crossed the BBB | Neither did they inhibit | 
COc1ccc(CC[C@H]2OC(=O)[C@@H]3CCCCN3C(=O)C(=O)C(C)(C)COC(=O)C=CCCN(C)C(=O)[C@H](C)NC(=O)[C@H](C(C)C)N(C)C(=O)[C@@H](Cc3ccccc3)NC(=O)[C@H](CC(C)C)N(C)C(=O)CCC(=O)Nc3cccc2c3)cc1OC [compound 77] | do not inhibit | 75.5 | Neither did they inhibit |  | only compound 56 crossed the BBB | Neither did they inhibit | 
COc1ccc(CC[C@H]2OC(=O)[C@@H]3CCCCN3C(=O)C(=O)C(C)(C)COC(=O)C=CCCN(C)C(=O)[C@@H]3CCCN3C(=O)[C@H](CO)N(C)C(=O)C(c3ccccc3)NC(=O)[C@H](C)N(C)C(=O)COc3cccc2c3)cc1OC (stereo partly shown) [compound 97] |  | −5.3 |  |  |  |  | 
COc1ccc(CC[C@H]2OC(=O)[C@@H]3CCCCN3C(=O)C(=O)C(C)(C)COC(=O)C=CCCN(C)C(=O)CNC(=O)[C@H](C(C)C)N(C)C(=O)[C@@H](Cc3ccccc3)NC(=O)[C@H](CC(C)C)N(C)C(=O)CCC(=O)Nc3cccc2c3)cc1OC [compound 76] | do not inhibit | 73.5 | Neither did they inhibit |  |  | Neither did they inhibit | 
COc1ccc(CC[C@H]2OC(=O)[C@@H]3CCCCN3C(=O)C(=O)C(C)(C)COC(=O)C=CCCN(C)C(=O)[C@@H]3CCCN3C(=O)[C@H](COC(C)(C)C)N(C)C(=O)C(c3ccccc3)NC(=O)CN(C)C(=O)COc3cccc2c3)cc1OC (stereo partly shown) [compound 41] | do not inhibit | 82.0 | Neither did they inhibit |  |  | Neither did they inhibit | 
COc1ccc(CC[C@H]2OC(=O)[C@@H]3CCCCN3C(=O)C(=O)C(C)(C)COC(=O)C=CCCN(C)C(=O)[C@@H]3CCCN3C(=O)[C@H](COC(C)(C)C)N(C)C(=O)C(c3ccccc3)NC(=O)[C@H](C)N(C)C(=O)COc3cc(F)cc2c3)cc1OC (mixture of isomers) [compound 121] |  | 71.2 |  |  |  |  | ~3

Source: patent publication US20220372014A1, “NEUROPROTECTIVE COMPOUNDS AND METHODS OF USE THEREOF” (The Johns Hopkins University, priority 2019, published 2022)
